From PubChem BioAssay (NCI)
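Tested at 5 concentrations; 48 h exposure; 96-well plates; endpoints linearly interpolated, else capped at highest concentration. At the GI50, growth is halved. TGI denotes the concentration required for complete inhibition of growth.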

How the values were obtained:
Test in all cases: NCI-60 cell line screen, 48 h
NCI-H23 lung = system: NCI-H23 lung
SN12C renal = system: SN12C renal
SK-MEL-28 melanoma = system: SK-MEL-28 melanoma
SF-295 CNS = system: SF-295 CNS
SNB-75 CNS = system: SNB-75 CNS
KM12 colon = system: KM12 colon
SF-539 CNS = system: SF-539 CNS
NCI/ADR-RES ovarian = system: NCI/ADR-RES ovarian
MCF7 breast = system: MCF7 breast
PC-3 prostate = system: PC-3 prostate

SMILES | TGI (NCI-H23 lung) | TGI (SN12C renal) | TGI (SK-MEL-28 melanoma) | TGI (SF-295 CNS) | TGI (SNB-75 CNS) | TGI (KM12 colon) | TGI (SF-539 CNS) | TGI (NCI/ADR-RES ovarian) | TGI (MCF7 breast) | TGI (PC-3 prostate) | GI50 (SNB-75 CNS) | GI50 (KM12 colon) | GI50 (SF-539 CNS) | GI50 (NCI-H23 lung) | GI50 (NCI/ADR-RES ovarian) | GI50 (SK-MEL-28 melanoma) | GI50 (MCF7 breast) | GI50 (PC-3 prostate) | GI50 (SF-295 CNS) | GI50 (SN12C renal)
CCOC(=O)C12CC1(C(=O)OCC)C1CCC2C1 (centres undefined) | > 100 µM | > 100 µM | > 100 µM | > 100 µM |  |  |  |  |  |  |  |  |  |  |  |  |  |  |  | 
Cc1ccc(NC(=O)C(=O)Cc2nc3ccccc3o2)c(C)c1 | > 100 µM | > 100 µM | > 100 µM | > 100 µM | > 100 µM | > 100 µM | > 100 µM |  |  |  |  |  |  |  |  |  |  |  |  | 
O=Cc1coc2ccccc2c1=O | 70.7 µM | 58.6 µM |  | 41.2 µM | 0.0768 µM | 69.9 µM | 31.9 µM | 34.9 µM | 45.7 µM | 53.7 µM |  |  |  |  |  |  |  |  |  | 
COc1ccc(C(=O)C=C2NCCN2)cc1 | > 100 µM | > 100 µM | > 100 µM | > 100 µM | > 100 µM | > 100 µM | > 100 µM |  |  |  |  |  |  |  |  |  |  |  |  | 
Cc1cc(C)nc(NS(=O)(=O)c2ccc(NC(=O)c3cccc4cc5ccccc5nc34)cc2)n1 | 86.5 µM | > 100 µM | > 100 µM | > 100 µM | > 100 µM | 84.9 µM | 34 µM |  |  |  |  |  |  |  |  |  |  |  |  | 
C#Cc1ccc(NC(=O)c2ccc(/C=C/C(=O)c3nccn3C)cc2)cc1 | 1.06 µM |  | 1.24 µM | 1.25 µM | 0.809 µM | 0.99 µM | 0.801 µM | 25 µM | 1.09 µM | 1.53 µM | 0.344 µM | 0.421 µM | 0.42 µM | 0.46 µM | 0.77 µM | 0.521 µM | 0.3 µM | 0.476 µM | 0.537 µM | 
CCNCC(O)c1ccc(N)c([N+](=O)[O-])c1 (centres undefined) | > 100 µM | > 100 µM | > 100 µM | > 100 µM | > 100 µM |  | > 100 µM | > 100 µM | > 100 µM | > 100 µM |  |  |  |  |  |  |  |  |  | 
Fc1ccc(-c2ncn(C3CCNCC3)c2-c2ccnc(Oc3cccc(F)c3)n2)cc1 |  | > 25 µM | 11.6 µM | > 25 µM | > 25 µM | > 25 µM | > 25 µM | > 25 µM | > 20.4 µM | > 25 µM | 14.8 µM | 13.6 µM | 10.7 µM |  | > 23.4 µM | 5.46 µM | 7.38 µM | 16.5 µM | 12.4 µM | 19.1 µM
O=C1C(c2ccccc2)=C(c2ccccc2)C(c2ccc(CCCCCCc3ccc(C4=C(c5ccccc5)C(=O)C(c5ccccc5)=C4c4ccccc4)cc3)cc2)=C1c1ccccc1 | > 100 µM | > 100 µM | > 100 µM | > 100 µM |  | > 100 µM | > 100 µM |  |  |  |  |  |  |  |  |  |  |  |  | 
COc1ccc(NC(=O)C(=O)C2NC(=S)NC2=O)c(OC)c1 (centres undefined) | > 100 µM | > 100 µM | > 100 µM | > 100 µM | > 100 µM | > 100 µM | > 100 µM |  |  |  |  |  |  |  |  |  |  |  |  | 
Cc1ccc(Nc2ccc(Nc3ccc(C)cc3)c3c2C(=O)c2c(O)ccc(O)c2C3=O)cc1 | > 100 µM | > 100 µM | > 100 µM | > 100 µM | > 100 µM | > 100 µM | > 100 µM |  |  |  |  |  |  |  |  |  |  |  |  | 
O=[N+]([O-])c1ccccc1C1N2CCCCC2[C@@H]2c3[nH]c4ccccc4c3CCN12 (some centres undefined) | 27.5 µM | 26.6 µM | 26.6 µM | 29.8 µM |  |  | 25.1 µM |  |  |  |  |  |  |  |  |  |  |  |  | 
CCS/C(Nc1ccccc1)=C(\C#N)C(=O)Nc1ccc(OC)cc1 | > 100 µM | > 100 µM | > 100 µM | > 100 µM | 7.21 µM | > 100 µM | 4.81 µM | > 100 µM | > 100 µM |  | 2.13 µM | 2.8 µM | 1.96 µM | 4.9 µM | 2.62 µM | 15.3 µM | 2.71 µM |  | 3.06 µM | 5.91 µM
Cc1nc(C(N)=S)sc1C(=O)/C=C/c1cccc(O)c1 | > 100 µM | > 100 µM | > 100 µM | > 100 µM | > 100 µM | > 100 µM | > 100 µM |  |  |  |  |  |  |  |  |  |  |  |  | 
COC(=O)C1=C(C(=O)OC)C2(C(=O)OC)OC1(OC)C(C1(C(=O)OC)C(C(=O)OC)=C1C(=O)OC)=C2C(=O)OC (centres undefined) | > 100 µM | > 100 µM | > 100 µM | > 100 µM | > 100 µM | > 100 µM | > 100 µM |  |  |  |  |  |  |  |  |  |  |  |  | 
Fc1ccccc1C1CC(C(c2ccccc2)c2ccccc2)=Nc2ccccc2S1 (centres undefined) | 24.7 µM | 26 µM | 25.1 µM | 26.5 µM | 5.48 µM | 23.1 µM | 50.4 µM |  |  |  |  |  |  |  |  |  |  |  |  | 
COC(=O)C1(Cc2cccc(Cl)c2)CCCCCCN1C(=O)c1ccccc1 (centres undefined) | 51.1 µM | 28.1 µM | 31.7 µM | 22.1 µM | 29.6 µM |  |  | 54.1 µM | 26.6 µM | 17.4 µM |  |  |  |  |  |  |  |  |  | 
CCCCCCCCCC(=O)CC(=O)c1c(O)cccc1O | > 100 µM | 53.4 µM | > 100 µM | 98.2 µM | 99.7 µM | > 100 µM | > 100 µM |  |  |  |  |  |  |  |  |  |  |  |  | 
C=C(C)[C@H]1CC/C(C)=C/CCC(C)C(=O)CC/C(CO)=C\[C@@H]1O (some centres undefined) | > 100 µM | > 100 µM | > 100 µM | > 100 µM |  | > 100 µM | > 100 µM | > 100 µM | > 100 µM | > 100 µM |  | > 100 µM | > 100 µM | > 100 µM | > 100 µM | 7.9 µM | > 100 µM | 76.3 µM | 70 µM | > 100 µM
CCN(CC)CCCNC(=O)Cc1ccccc1Nc1c(Cl)cccc1Cl | 32.2 µM | 28.5 µM | 25.4 µM | 32.7 µM | 21.8 µM | 39.3 µM | 28.7 µM |  |  |  |  |  |  |  |  |  |  |  |  | 
C=C(C)C1/C=C(/C(C)C)CC[C@]2(C)O[C@@H]2CC[C@H](C)CC1=O (some centres undefined) | > 100 µM | > 100 µM | > 100 µM | > 100 µM |  | > 100 µM |  | > 100 µM | > 100 µM | > 100 µM |  | 58.1 µM |  | 87 µM | 87.4 µM | > 100 µM | 50.7 µM | 32.4 µM | 71.4 µM | > 100 µM
